Molecules are shown by their SMILES. Where two headings read alike, the source gives them in different places. Bounds are passed on as bounds.

The test system of one data set is hiPSC-CMs. The data set is described as follows: Cardiotoxicity assay in hiPSC-CMs (voltage transients, arrhythmia, contractility). The method, then: iPSC-CMs: Human fibroblasts were reprogrammed to induced pluripotent stem cells (iPSCs) using Sendai viral vectors. All protocols were approved by the Stanford University Institutional Review Board. The obtained hiPSC clones were cultured in E8 cell culture media (Life Technologies) in plates coated growth factor-reduced Matrigel (Corning) until at least passage 20 before differentiation. hiPSC cells were differentiated into cardiomyocytes (CMs) utilizing a chemically defined cardiomyocyte differentiation protocol^55 and fatty acid rich maturation protocol.^56
hiPSC-CMs were plated on Matrigel coated 384-well plates at 20,000 cells per well (Greiner μClear) in 50 μl cardiomyocyte media (RMPI, B27) supplemented with 10% knock-out replacement serum. The subsequent day an additional 50 μl of media was added and cells were grown for a minimum of 5 days prior to analysis. Action potential kinetics and contractility was measured on the same cells sequentially. First, action potential kinetics were recorded using the protocol as established by Mckeithan et al.^58 Briefly, the cells were washed 5 times with FluoroBrite, loaded with VF2.1.CI dye for 50 min at 37° C., and washed again 5 times with FluoroBrite. Voltage time series were acquired at a frequency of 33 Hz for a duration of 10 s on the IC200 Kinetic Imaging Platform (Vala Sciences). […] The resulting recordings were subsequently analyzed using Vala Sciences and custom software, action potential kinetics, action potential durations and rates,^58 or contractile activity parameters (peak divergence, area under the curve) were used as measures of cardiotoxicity.^59

Data set [1] has as its system K-562-T315I cells (K-562 cells expressing BCR-ABL^T315I). As to the kind of experiment: Cell viability / growth inhibition (AlamarBlue), K-562-T315I. The data set is classed as cell-based. As to conditions: Homo sapiens, K562, read-out: Cell Inhibition IC50 K-562-T315I. The method, then:
(§1) K562 and K562-T315I: The Leukemia cell lines K562 were purchased and maintained as recommended by ATCC (Manassas, VA, USA). Briefly, K562 cells were cultured in suspension in RPMI1640 (ThermoFisher Scientific, USA) supplemented with 10% fetal bovine serum and Pen/Strep/L-Glutamine. […] Briefly, one million K562 cells were seeded in 6-well plates and transfected with Lipofectamine 2000 and 1 μg of CRISPR/Cas9 vector (pSpCas9(BB)-2A-GFP) incorporating the guide sequence ([…]), and Lipofectamine RNAiMax and 4 μg of ssDNA donors (1ug of each donor, Supplementary Table 1) for each well of a 6-well plate.
(§2) The effects of the compounds on cell viability were evaluated using the AlamarBlue assay using the NCI60 methodology.^57 Cells were harvested and plated in 384-well plates (Greiner μClear) at a concentration of 1250 cells/well in 40 μL, and incubated for 24 h at 37° C. The next day, test compounds were added to the cells as a 2×40μL solution, and incubated for 48 h at 37° C.
In general terms: Alamar Blue is a resazurin reagent that responds to reducing activity.

Another data set concerns K-562 cells. The data set is described as follows: Cell viability / growth inhibition (AlamarBlue), K-562. As to conditions: Homo sapiens. The data set is classed as cell-based. The method, then: as §1, §2
A short description of data set [2]: Serum cardiac troponin levels in treated mice. As to conditions: 30 mg/kg daily by oral gavage; indication of cardiac damage.
The next data set relates to HEK cells. The data set is described as follows: HEK cell growth inhibition.
Setting [3] is: K562, Table 5, ± SD, read-out: Cell Inhibition IC50 K562.

As to `C#Cc1cc(C(=O)Nc2ccc(CN3CCN(C)CC3)c(C(F)(F)F)c2)ccc1C` [Compound 19, 3-ethynyl-4-methyl-N-(4-((4-methylpiperazin-1-yl)methyl)-3-(trifluoromethyl)phenyl) benzamide], in the data set with hiPSC-CMs (Table 4), the “Cardiotoxicity (overall maximum toxic dose)” value was determined as 1.13 µM.
In the case of `Cc1nccc(Nc2ncc(C(=O)Nc3c(C)cccc3Cl)s2)n1` [Compound 3b, N-(2-chloro-6-methylphenyl)-2-((2-methylpyrimidin-4-yl)amino) thiazole-5-carboxamide], the “Cardiotoxicity (overall maximum toxic dose)” value in the data set on hiPSC-CMs (Table 1) was above 10 µM.
For `O=C(Nc1ccc(OC(F)(F)Cl)cc1)c1cnc(N2CC[C@@H](O)C2)c(-c2ccn[nH]2)c1` [Asciminib], in the data set on hiPSC-CMs (Table 5), the “Cardiotoxicity (overall maximum toxic dose)” value was 4.81 µM.
Consider `Cc1cn(-c2cc(NC(=O)c3ccc(C)c(Nc4nccc(-c5cccnc5)n4)c3)cc(C(F)(F)F)c2)cn1` [Nilotinib], for which the half-inhibitory concentration (IC50) is above 10000 nM in data set [1] and 26 nM in the data set on K-562 cells (setting [3]). The “Cardiotoxicity (overall maximum toxic dose)” value in the data set on hiPSC-CMs (Table 5) is 1.12 µM.
Consider `C#Cc1cc(C(=O)Nc2cc(-n3cnc(C)c3)cc(C(F)(F)F)c2)ccc1C` [Compound 26, 3-ethynyl-4-methyl-N-(3-(4-methyl-1H-imidazol-1-yl)-5-(trifluoromethyl)phenyl)benzamide], for which the “Cardiotoxicity (overall maximum toxic dose)” value in the data set with hiPSC-CMs (Table 4) was above 10 µM.
With `Cc1nc(Nc2ncc(C(=O)Nc3c(C)cccc3Cl)s2)cc(N2CCN(CCO)CC2)n1` [Dasatinib], the IC50 with K-562 cells (setting [3]) came to 0.4 nM. In the data set with hiPSC-CMs (Table 5), the “Cardiotoxicity (overall maximum toxic dose)” value is above 10 µM.
As to `Cc1ccc(C(=O)Nc2ccc(CN3CCN(C)CC3)c(C(F)(F)F)c2)cc1` [Compound 21a, 4-methyl-N-(4-((4-methylpiperazin-1-yl)methyl)-3-(trifluoromethyl)phenyl)benzamide], the “concentration at which cardiotoxicity was observed / cardiac-safe up to” value in the data set on hiPSC-CMs is 1450 nM. Further, the “Cardiotoxicity (overall maximum toxic dose)” value with hiPSC-CMs (Table 4) amounted to 1.45 µM.
On to `Cc1ccc(C(=O)N2CCN(C)CC2)cc1C#Cc1cnc2cccnn12` [Compound 10a, (3-(imidazo[1,2-b]pyridazin-3-ylethynyl)-4-methylphenyl)(4-methylpiperazin-1-yl)methanone], for which the “Cardiotoxicity (overall maximum toxic dose)” value in the data set with hiPSC-CMs (Table 3) was above 10 µM.
In the case of `C#Cc1cc(C(=O)Nc2ccc(CN3CCN(C)CC3)c(C(F)(F)F)c2)ccc1OC` [Compound 29, 3-ethynyl-4-methoxy-N-(4-((4-methylpiperazin-1-yl)methyl)-3-(trifluoromethyl)phenyl)benzamide], the “concentration at which cardiotoxicity was observed / cardiac-safe up to” value with hiPSC-CMs is 1340 nM. Besides, the “Cardiotoxicity (overall maximum toxic dose)” value in the data set on hiPSC-CMs (Table 4) was determined as 1.34 µM.
In the case of `Cc1ccc(C(=O)Nc2ccc(CN3CCN(C)CC3)c(C(F)(F)F)c2)cc1C#Cc1cnc2cccnn12` [Ponatinib], in the data set on K-562 cells (K562, read-out: Cell Inhibition IC50 K562), the concentration for half-maximal inhibition (IC50) came to 0.5 nM. For the same compound, in data set [2], the “serum cardiac troponin levels” value was “increased troponin levels”. Moreover, the “effect on cardiomyocyte contractility (peak contraction amplitude)” value with hiPSC-CMs (FIGS. 3D, 3E, hiPSC-CMs from two healthy donors) is reported as “potently suppresses cardiomyocyte contractility”. Moreover, the “Cardiotoxicity (overall maximum toxic dose)” value in the data set on hiPSC-CMs (Table 5) was determined as 0.47 µM. In addition, the “inhibition of growth of healthy HEK cells at” value with HEK cells was 1.1 µM.

As usually defined, the IC50 is the concentration needed to halve the response being measured.

These data come from patent publication US20240199626A1, “COMPOUNDS WITH IMPROVED CARDIAC SAFETY FOR THE TREATMENT OF CANCER AND NEURODEGENERATIVE DISORDERS” (priority 2021, published 2024).
